Data published in US20260138978A1, “POSITIVE ALLOSTERIC MODULATORS OF THE MUSCARINIC ACETYLCHOLINE RECEPTOR M1” (Vanderbilt University, priority 2022, published 2026).

Assays:
[1] = biological target: T1, human mAChRM1 (Homo sapiens, UniProt P11229); assay: mAChR M1 cell-based functional assay (calcium mobilization), positive allosteric modulator activity: increase in the EC20 acetylcholine response; details: for Emax: PAM mode; for EC50: increase in the EC20 acetylcholine response, read-out: PAM Activity Human M1 EC50
T1 construct: host or cells: CHO-K1
T1 sequence (P11229 1-460): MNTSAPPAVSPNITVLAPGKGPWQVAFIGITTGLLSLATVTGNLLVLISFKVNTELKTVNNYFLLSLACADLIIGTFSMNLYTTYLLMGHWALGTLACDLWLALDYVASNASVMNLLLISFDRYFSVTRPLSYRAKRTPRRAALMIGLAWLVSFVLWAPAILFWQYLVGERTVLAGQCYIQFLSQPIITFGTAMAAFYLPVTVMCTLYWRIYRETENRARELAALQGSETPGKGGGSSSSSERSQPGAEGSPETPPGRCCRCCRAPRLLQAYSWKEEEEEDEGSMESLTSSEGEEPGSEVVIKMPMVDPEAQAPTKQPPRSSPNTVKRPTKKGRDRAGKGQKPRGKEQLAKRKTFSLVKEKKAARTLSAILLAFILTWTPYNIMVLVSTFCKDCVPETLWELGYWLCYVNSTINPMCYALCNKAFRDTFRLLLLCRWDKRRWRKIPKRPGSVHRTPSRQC
Method in brief: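 Potentiation is scored as the rise in an EC20 acetylcholine-evoked calcium signal across 11-point (1:3) compound series, fitted with a four-parameter logistic equation to give EC50 and Emax. Read-out is Fluo-4 fluorescence ratio in hM1-transfected CHO-K1 cells, measured kinetically on FDSS.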

[2] = biological target: T1, human mAChRM1; assay: mAChR M1 cell-based functional assay (calcium mobilization), agonist activity upon compound addition, Emax relative to acetylcholine maximum; details: for Agonist Activity Human M1 EC50 / EC50: calcium mobilization upon compound addition; for Emax: relative to the maximum for acetylcholine
Method in brief: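 Emax is given as a percentage of the maximal acetylcholine response, from four-parameter curves of compound-evoked calcium mobilization. Human M1-transfected CHO-K1 cells carried Fluo-4 dye, and compound (11 concentrations, 1:3 steps) was applied at 4 s of a 300 s kinetic fluorescence recording.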

| SMILES | Emax [1] [%] | EC50 [1] [µM] | Agonist Activity Human M1 EC50 [2] | EC50 [2] [µM] | Emax [2] [%] |
| --- | --- | --- | --- | --- | --- |
| Cc1cc(-c2cc(C(C)(C)O)cc3nn(C)cc23)ccc1CN1Cc2ncccc2C1=O [Compound 27, 6-(4-(6-(2-hydroxypropan-2-yl)-2-methyl-2H-indazol-4-yl)-2-methylbenzyl)-6,7-dihydro-5H-pyrrolo[3,4-b]pyridin-5-one] | 83 | 3.28 | inactive | – | – |
| Cn1cc2c(-c3ccc(CN4Cc5cccc(F)c5C4=O)c(F)c3)ccc(C(C)(C)O)c2n1 [Compound 160, 7-fluoro-2-(2-fluoro-4-(7-(2-hydroxypropan-2-yl)-2-methyl-2H-indazol-4-yl)benzyl)isoindolin-1-one] | 80 | 0.296 | inactive | – | – |
| [2H]C([2H])([2H])C(C)(O)c1ccc(-c2cc(F)c(CN3Cc4ncccc4C3=O)c(F)c2)c2cn(C)nc12 (stereo not shown) [Compound 95, 6-(2,6-difluoro-4-(7-(2-hydroxypropan-2-yl-1,1,1-d3)-2-methyl-2H-indazol-4-yl)benzyl)-6,7-dihydro-5H-pyrrolo[3,4-b]pyridin-5-one] | 86 | 0.096 | – | 1.86 | 27 |
| CC[C@](C)(O)c1ccc(-c2cc(F)c(CN3Cc4ncccc4C3=O)c(F)c2)c2cn(C)nc12 [Compound 103, (S)-6-(2,6-difluoro-4-(7-(2-hydroxybutan-2-yl)-2-methyl-2H-indazol-4-yl)benzyl)-6,7-dihydro-5H-pyrrolo[3,4-b]pyridin-5-one] | 87 | 0.254 | – | 4.23 | 11 |
| CC(C)(O)c1cc2c(-c3cc(F)c(CN4Cc5ncccc5C4=O)c(F)c3)cccn2n1 [Compound 107, 6-(2,6-difluoro-4-(2-(2-hydroxypropan-2-yl)pyrazolo[1,5-a]pyridin-4-yl)benzyl)-6,7-dihydro-5H-pyrrolo[3,4-b]pyridin-5-one] | 77 | 2.79 | – | ≥ 10 | 12 |
| [2H]C1([2H])c2ncccc2C(=O)N1Cc1c(C)cc(-c2ccc(C(C)(C)O)c3nn(C([2H])([2H])[2H])cc23)cc1F (single isomer, unassigned) [Compound 146, 6-(2-fluoro-4-(7-(2-hydroxypropan-2-yl)-2-(methyl-d3)-2H-indazol-4-yl)-6-methylbenzyl)-6,7-dihydro-5H-pyrrolo[3,4-b]pyridin-5one-7,7-d2] | 65 | 0.12 | – | ≥ 10 | 28 |
| [2H]C([2H])([2H])n1cc2c(-c3cc(F)c(CN4Cc5ncccc5C4=O)c(F)c3)ccc(C(C)(C)O)c2n1 [Compound 4, 6-(2,6-difluoro-4-(7-(2-hydroxypropan-2-yl)-2-(methyl-d3)-2H-indazol-4-yl)benzyl)-6,7-dihydro-5H-pyrrolo[3,4-b]pyridin-5-one] | 83 | 0.124 | – | 1.91 | 49 |
| COCCOc1cc(-c2ccc(C(C)(C)O)c3nn(C)cc23)cc(F)c1CN1Cc2cccnc2C1=O [Compound 126, 6-(2-fluoro-4-(7-(2-hydroxypropan-2-yl)-2-methyl-2H-indazol-4-yl)-6-(2-methoxyethoxy)benzyl)-5,6-dihydro-7H-pyrrolo[3,4-b]pyridin-7-one] | 83 | 0.061 | – | 3.73 | 54 |
| Cn1cc2c(-c3cc(F)c(CN4Cc5ncccc5C4=O)c(N4CCC4)c3)ccc(C(C)(C)O)c2n1 [Compound 78, 6-(2-(azetidin-1-yl)-6-fluoro-4-(7-(2-hydroxypropan-2-yl)-2-methyl-2H-indazol-4-yl)benzyl)-6,7-dihydro-5H-pyrrolo[3,4-b]pyridin-5-one] | 81 | 0.583 | inactive | – | – |
| Cn1ncc2c(-c3cc(F)c(CN4Cc5cccc(F)c5C4=O)c(F)c3)ccc(C(C)(C)O)c21 [Compound 157, 2-(2,6-difluoro-4-(7-(2-hydroxypropan-2-yl)-1-methyl-1H-indazol-4-yl)benzyl)-7-fluoroisoindolin-1-one] | 61 | ≥ 10 | inactive | – | – |
| Cc1cc(-c2cn(C)nc2C(C)(C)O)cc(F)c1CN1Cc2ncccc2C1=O [Compound 30, 6-(2-fluoro-4-(3-(2-hydroxypropan-2-yl)-1-methyl-1H-pyrazol-4-yl)-6-methylbenzyl)-6,7-dihydro-5H-pyrrolo[3,4-b]pyridin-5-one] | 51 | ≥ 10 | inactive | – | – |

Results, then the compound that gave them:

| Emax [1] [%] | EC50 [1] [µM] | Agonist Activity Human M1 EC50 [2] | EC50 [2] [µM] | Emax [2] [%] | SMILES |
| --- | --- | --- | --- | --- | --- |
| 47 | ≥ 10 | inactive | – | – | Cn1cc2c(-c3ncc(CN4Cc5ncccc5C4=O)cn3)ccc(C(C)(C)O)c2n1 [Compound 111, 6-((2-(7-(2-hydroxypropan-2-yl)-2-methyl-2H-indazol-4-yl)pyrimidin-5-yl)methyl)-6,7-dihydro-5H-pyrrolo[3,4-b]pyridin-5-one] |
| 88 | 0.233 | – | ≥ 10 | 17 | COc1cc(-c2ccc(C(C)(C)O)c3nn(C)cc23)cc(F)c1CN1Cc2cccnc2C1=O [Compound 116, 6-(2-fluoro-4-(7-(2-hydroxypropan-2-yl)-2-methyl-2H-indazol-4-yl)-6-methoxybenzyl)-5,6-dihydro-7H-pyrrolo[3,4-b]pyridin-7-one] |
| 75 | 5.1 | inactive | – | – | CC(C)c1cnc2c(c1)C(=O)N(Cc1c(F)cc(-c3ccc(C(C)(C)O)c4nn(C)cc34)cc1F)C2 [Compound 177, 6-(2,6-difluoro-4-(7-(2-hydroxypropan-2-yl)-2-methyl-2H-indazol-4-yl)benzyl)-3-isopropyl-6,7-dihydro-5H-pyrrolo[3,4-b]pyridin-5-one] |
| 61 | 5.68 | inactive | – | – | CC(C)(O)c1ccc(-c2cc(F)c(CN3Cc4ncccc4C3=O)c(C(F)(F)F)c2)cc1 [Compound 44, 6-((3-fluoro-4′-(2-hydroxypropan-2-yl)-5-(trifluoromethyl)-[1,1′-biphenyl]-4-yl)methyl)-6,7-dihydro-5H-pyrrolo[3,4-b]pyridin-5-one] |
| 87 | 0.065 | – | 8.35 | 33 | Cc1cc(-c2ccc(C(C)(C)O)c3nn(C)cc23)cc(F)c1CN1Cc2ncccc2C1=O [Compound 2, 6-(2-Fluoro-4-(7-(2-hydroxypropan-2-yl)-2-methyl-2H-indazol-4-yl)-6-methylbenzyl)-6,7-dihydro-5H-pyrrolo[3,4-b]pyridin-5-one] |
| 84 | 1.44 | inactive | – | – | Cn1cc2c(-c3cc(F)c(CN4Cc5ncccc5C4=O)c(F)c3)ccc(C(O)(C3CC3)C3CC3)c2n1 [Compound 84, 6-(4-(7-(dicyclopropyl(hydroxy)methyl)-2-methyl-2H-indazol-4-yl)-2,6-difluorobenzyl)-6,7-dihydro-5H-pyrrolo[3,4-b]pyridin-5-one] |
| 76 | 1.31 | – | 9.05 | 60 | Cn1cc2c(-c3cc(Cl)c(CN4Cc5cccnc5C4=O)c(C4CC4)c3)ccc(C(C)(C)O)c2n1 [Compound 134, 6-(2-chloro-6-cyclopropyl-4-(7-(2-hydroxypropan-2-yl)-2-methyl-2H-indazol-4-yl)benzyl)-5,6-dihydro-7H-pyrrolo[3,4-b]pyridin-7-one] |
| 62 | 0.074 | – | 6.19 | 43 | [2H]C1([2H])c2ncccc2C(=O)N1Cc1c(F)cc(-c2ccc(C(C)(C)O)c3nn(C([2H])([2H])[2H])cc23)cc1C1CC1 (single isomer, unassigned) [Compound 147, 6-(2-cyclopropyl-6-fluoro-4-(7-(2-hydroxypropan-2-yl)-2-(methyl-d3)-2H-indazol-4-yl)benzyl)-6,7-dihydro-5H-pyrrolo[3,4-b]pyridin-5-one-7,7-d2] |
| 36 | ≥ 10 | inactive | – | – | Cc1cc(-c2cc(C(C)(C)O)nn2C)ccc1CN1Cc2ncccc2C1=O [Compound 69, 6-(4-(3-(2-hydroxypropan-2-yl)-1-methyl-1H-pyrazol-5-yl)-2-methylbenzyl)-6,7-dihydro-5H-pyrrolo[3,4-b]pyridin-5-one] |
| 45 | ≥ 10 | inactive | – | – | CC(C)(O)c1cc(-c2ccc(CN3Cc4ncccc4C3=O)c(F)c2)c2[nH]nnc2c1 [Compound 75, 6-(2-fluoro-4-(5-(2-hydroxypropan-2-yl)-1H-benzo[d][1,2,3]triazol-7-yl)benzyl)-6,7-dihydro-5H-pyrrolo[3,4-b]pyridin-5-one] |
| 66 | 1.03 | inactive | – | – | CC(C)(O)c1ccc(-c2cc(F)c(CN3Cc4ncccc4C3=O)c(Cl)c2)cc1 [Compound 45, 6-((3-chloro-5-fluoro-4′-(2-hydroxypropan-2-yl)-[1,1′-biphenyl]-4-yl)methyl)-6,7-dihydro-5H-pyrrolo[3,4-b]pyridin-5-one] |
